Values quoted from earlier work as cited in patent US20170340580A1, “BIOADHESIVE PATCH” (priority 2008, published 2017).

Conditions: 8 mg ml^−1; temperatures up to 37° C.

ALA stability in 0.1 M borate buffer pH 5: up to 6 hours
Structure (SMILES): NCC(=O)CCC(=O)O [ALA, 5-aminolevulinic acid]
